For experiment [1], the target named is T1, GRK2 (Homo sapiens, UniProt P25098).
T1 construct: purchased SignalChem A14-10G
T1 sequence (P25098 1-689): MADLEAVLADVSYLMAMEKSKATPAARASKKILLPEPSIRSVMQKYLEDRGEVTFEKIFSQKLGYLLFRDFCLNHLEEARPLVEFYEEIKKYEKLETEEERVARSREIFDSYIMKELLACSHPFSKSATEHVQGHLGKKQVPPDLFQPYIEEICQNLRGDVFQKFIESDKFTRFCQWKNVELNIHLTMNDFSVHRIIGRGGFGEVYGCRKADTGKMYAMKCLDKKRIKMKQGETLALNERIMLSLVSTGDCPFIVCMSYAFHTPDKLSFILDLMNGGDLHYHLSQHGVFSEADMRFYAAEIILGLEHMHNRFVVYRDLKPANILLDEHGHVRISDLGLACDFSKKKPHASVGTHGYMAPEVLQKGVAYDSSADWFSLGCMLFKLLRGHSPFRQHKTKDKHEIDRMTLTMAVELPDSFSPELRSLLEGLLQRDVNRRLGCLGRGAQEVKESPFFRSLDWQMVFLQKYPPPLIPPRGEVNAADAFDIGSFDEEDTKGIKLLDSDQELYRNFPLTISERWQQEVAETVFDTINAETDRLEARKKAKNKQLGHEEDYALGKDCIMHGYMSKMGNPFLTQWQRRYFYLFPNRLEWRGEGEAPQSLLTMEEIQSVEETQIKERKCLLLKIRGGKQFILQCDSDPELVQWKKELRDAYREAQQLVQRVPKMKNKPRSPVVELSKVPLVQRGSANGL
The experiment can be described thus: GRK2 Inhibition Assay (TR-FRET, Example 7). In kind it is biochemical. The conditions noted are these: read-out: B: Enzymatic GRK2: IC50 (nM) (Example 7). An outline of the steps: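 GRK2 at 1 nM preincubated 30 min with compound, then reacted 90 min at room temperature with 7 μM ATP and 50 nM ULight-TopoIIα in HEPES/MgCl2/DTT buffer. Phosphorylation detected by TR-FRET after Eu anti-TopoIIα and EDTA addition, 60 min.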

Experiment [2] has as its target T1, GRK2. The experiment can be described thus: ADPGlo GRK2 Inhibition Assay (Example 8). In kind it is biochemical. As to conditions: read-out: A: Enzymatic GRK2: IC50 (nM) (Example 8). The method, boiled down:
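GRK2 (15 nM 2× enzyme solution) was preincubated 15 min with compound, then reacted 180 min at room temperature with 2× mix of 20 μM ATP plus GRKtide in HEPES pH 7.5, MgCl2, Tween-20, DTT. ADP was detected by ADP-Glo luminescence. Percent inhibition was normalised to enzyme and no-enzyme controls, with dose-response curves from threefold dilutions starting at 100 μM.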
For orientation: In ADP-Glo the light output rises with the ADP produced.

Experiment [3] concerns PAXF1657 control empty vector cell line. The experiment can be described thus: 7-day proliferation assay, PAXF1657 control empty vector cell line (Example 9). The class given is cell-based. The conditions noted are these: 168 h; Cell Line: PAXF1657 empty vector (EV) cell line; 7-day; read-out: C: 7-day proliferation assay: IC50 GeoMean. The method, boiled down:
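Seven-day growth in PAXF1657 lines engineered for GRK2 overexpression or knockout, measured by CellTiter-Glo; compounds tested at 30 μM-0.0002 μM final and replenished once at day 3.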

The mark [4] stands for this setting: Enzyme Assay B, TR-FRET (Example 7).
Where [5] appears, read: Enzyme Assay A, ADPGlo (Example 8).

Where only a bound is given, the exact number is not on record here.

On to `Cn1c(CNc2cccc(C(=O)N[C@H]3CCOc4ccccc43)c2)nnc1-c1ccncc1F`, for which the results for the IC50 (at GRK2 [1] (setting [4]); on GRK2 [2] (setting [5]); in experiment [3]) were 59 nM, 44.3 nM and 1490 nM, respectively.
As for `Cn1c(CNc2cccc(C(=O)N[C@H]3c4ccccc4C[C@H]3O)c2)nnc1-c1ccncn1`, the IC50 on GRK2 [1] (setting [4]) turned out to be 24 nM; on GRK2 [2] (setting [5]), 7.3 nM; in experiment [3], 1410 nM.
As to `Cn1c(CNc2cccc(C(=O)NCc3cnc4ccccn34)c2)nnc1-c1ccncn1`, the values for the IC50 (at GRK2 [1] (setting [4]); on GRK2 [2] (setting [5]); in experiment [3]) were 3.2 nM, 0.96 nM and 1490 nM, respectively.
In the same order, the values of `Cc1cccc2nnc(CNC(=O)c3cccc(NCc4nnc(-c5ccncn5)n4C)c3)n12` are 2.1 nM, 0.79 nM and over 30000 nM.
Regarding `Cc1cc2c(cc1CNC(=O)c1ccnc(NCc3nnc(-c4ccncn4)n3C)c1)OCCO2`, the values for the IC50 (at GRK2 [1] (setting [4]); on GRK2 [2] (setting [5]); in experiment [3]) were 11.6 nM, 22.1 nM and over 330 nM, respectively.
`Cn1c(CNc2cc(C(=O)N[C@H]3COc4ccccc43)ccn2)nnc1-c1ccncn1`: the IC50 was 15.3 nM at GRK2 [1] (setting [4]), 12.9 nM at GRK2 [2] (setting [5]) and 476 nM in experiment [3].
The like results for `O=C(N[C@H]1CCOc2ccccc21)c1cccc(NCc2nnc(-c3ccncn3)n2CCO)c1` were, in that order, 2.5 nM, 4.1 nM and 104 nM.
In the same order, the values of `Cc1cccc([C@H](CO)NC(=O)c2cccc(NCc3nnc(-c4ccncn4)n3CCO)c2)c1` are under 0.8 nM, 2.32 nM and 50 nM.
In the case of `O=C(N[C@@H]1COc2ccccc21)c1cccc(NCc2nnc(-c3ccncn3)n2CCO)c1`, the IC50 on GRK2 [1] (setting [4]) is under 3.6 nM; at GRK2 [2] (setting [5]), 1.95 nM; in experiment [3], 90 nM.
The like results for `C[C@H](NC(=O)c1cccc(NCc2nnc(-c3ccncn3)n2CCO)c1)c1ncccc1Cl` were, in that order, 0.88 nM, 4.89 nM and over 220 nM.
On to `C#COc1cccc(OS(=O)(=O)F)c1CNC(=O)c1cccc(NCc2nnc(-c3ccncc3)[nH]2)c1`, for which the IC50 on GRK2 [1] (setting [4]) was 7.7 nM; at GRK2 [2] (setting [5]), 15.5 nM; in experiment [3], 13300 nM.
In the case of `[2H]C([2H])(Nc1cccc(C(=O)NCc2ccncc2CC)c1)c1nnc(-c2ccncn2)n1C`, the IC50 was 9.4 nM at GRK2 [1] (setting [4]), 20.2 nM at GRK2 [2] (setting [5]) and over 30000 nM in experiment [3].
For the molecule `C[C@H](NC(=O)c1cccc(NCc2nnc(-c3ccncn3)n2C)c1)c1ncccc1Cl`, the IC50 at GRK2 [1] (TR-FRET GRK2 enzyme assay) came to 16 nM; at GRK2 [2] (ADPGlo GRK2 enzyme assay), 9.6 nM; in experiment [3] it was 696 nM.
In the case of `Cn1c(CNc2cccc(C(=O)N[C@@H]3CCOc4c(Cl)cccc43)c2)nnc1-c1ccncn1`, the IC50 at GRK2 [1] (TR-FRET GRK2 enzyme assay) was 3.6 nM; on GRK2 [2] (ADPGlo GRK2 enzyme assay) it was 8.2 nM; in experiment [3], over 470 nM.
For `Cn1c(CNc2cccc(C(=O)N[C@H]3CCOc4c(Cl)cccc43)c2)nnc1-c1ccncn1`, the IC50 at GRK2 [1] (TR-FRET GRK2 enzyme assay) is 13.2 nM; on GRK2 [2] (ADPGlo GRK2 enzyme assay) it was 33.6 nM; in experiment [3] it was over 1010 nM.
`CNS(=O)(=O)c1cccc(F)c1CNC(=O)c1cccc(NCc2nnc(-c3ccncn3)n2C)c1`: the IC50 came to 12.7 nM on GRK2 [1] (TR-FRET GRK2 enzyme assay), 7.36 nM on GRK2 [2] (ADPGlo GRK2 enzyme assay) and 732 nM in experiment [3].
With `CCc1cnccc1CNC(=O)c1cccc(NCc2nnc(-c3ccncn3)n2[C@@H]2CCC[C@H](NC)C2)c1`, the IC50 at GRK2 [1] (TR-FRET GRK2 enzyme assay) is 57 nM; on GRK2 [2] (ADPGlo GRK2 enzyme assay), 456 nM; in experiment [3] it was over 4570 nM.
As for `COc1ncccc1CNC(=O)c1cccc(NCc2nnc(-c3ccncc3)[nH]2)c1` [drawing 424], the IC50 is 5.8 nM at GRK2 [1] (setting [4]), 12 nM on GRK2 [2] (setting [5]) and over 11000 nM in experiment [3].
Regarding `COc1cccc(C(CO)NC(=O)c2cccc(NCc3nnc(-c4ccncn4)n3C)c2)c1` (stereo not drawn) [drawing 569], the IC50 on GRK2 [1] (setting [4]) was 13 nM; at GRK2 [2] (setting [5]), 5.4 nM; in experiment [3] it was over 30000 nM.
As for `Cn1c(CNc2cccc(C(=O)NCc3cnccc3Cl)c2)nnc1-c1ccncn1` [drawing 570], the figures for the IC50 (at GRK2 [1] (setting [4]); at GRK2 [2] (setting [5]); in experiment [3]) were 17 nM, 4.3 nM and 1190 nM, respectively.
For the molecule `Cn1c(CNc2cccc(C(=O)NCc3ccc4c(c3)CCN4)c2)nnc1-c1ccncn1` [drawing 571], the IC50 on GRK2 [1] (setting [4]) was 15 nM; at GRK2 [2] (setting [5]) it was 9.4 nM; in experiment [3] it was over 30000 nM.
The like results for `Cn1c(CNc2cccc(C(=O)NC3CCOc4cccnc43)c2)nnc1-c1ccncn1` (stereo not drawn) [drawing 572] were, in that order, 13 nM, 9.6 nM and 285 nM.
On to `Cc1ccc(C(CO)NC(=O)c2cccc(NCc3nnc(-c4ccncn4)n3C)c2)cc1` (stereo not drawn) [drawing 575], for which the IC50 on GRK2 [1] (setting [4]) was 8.1 nM; on GRK2 [2] (setting [5]), 3.3 nM; in experiment [3] it was over 30000 nM.
On to `CCOc1ccc(C(CO)NC(=O)c2cccc(NCc3nnc(-c4ccncn4)n3C)c2)cn1` (stereo not drawn) [drawing 577], for which the IC50 on GRK2 [1] (setting [4]) is 12 nM; on GRK2 [2] (setting [5]), 1.8 nM; in experiment [3] it was over 30000 nM.
With `Cn1c(CNc2cccc(C(=O)NCc3ccc(-n4ccnn4)cc3)c2)nnc1-c1ccncn1` [drawing 579], the IC50 is 18 nM at GRK2 [1] (setting [4]), 9.5 nM on GRK2 [2] (setting [5]) and over 30000 nM in experiment [3].
`Cn1cccc1CNC(=O)c1cccc(NCc2nnc(-c3ccncn3)n2C)c1` [drawing 585]: the IC50 on GRK2 [1] (setting [4]) was 6.7 nM; on GRK2 [2] (setting [5]), 9.5 nM; in experiment [3], 551 nM.
For `Cc1cc2c(cc1CNC(=O)c1cccc(NCc3nnc(-c4ccncn4)n3C)c1)OCCO2` [drawing 588], the IC50 was 3.3 nM at GRK2 [1] (setting [4]), 0.5 nM on GRK2 [2] (setting [5]) and 996 nM in experiment [3].
For `Cc1cccc(C(CO)NC(=O)c2cccc(NCc3nnc(-c4ccncn4)n3C)c2)c1` (stereo not drawn) [drawing 589], the results for the IC50 (on GRK2 [1] (setting [4]); at GRK2 [2] (setting [5]); in experiment [3]) were 8.6 nM, 1.1 nM and 407 nM, respectively.
Consider `Cn1c(CNc2cccc(C(=O)NCc3cccc(C#N)c3)c2)nnc1-c1ccncn1` [drawing 591], for which the IC50 at GRK2 [1] (setting [4]) is 12 nM; at GRK2 [2] (setting [5]), 2.7 nM; in experiment [3] it was over 30000 nM.
The like results for `Cc1ccc2ncc(CNC(=O)c3cccc(NCc4nnc(-c5ccncn5)n4C)c3)n2c1` [drawing 596] were, in that order, 7.2 nM, 2.8 nM and over 30000 nM.
Consider `CC(NC(=O)c1cccc(NCc2nnc(-c3ccncn3)n2C)c1)c1c[nH]cn1` (stereo not drawn) [drawing 599], for which the IC50 was 60 nM at GRK2 [1] (setting [4]), 5.7 nM on GRK2 [2] (setting [5]) and over 30000 nM in experiment [3].
Regarding `Cn1c(CNc2cccc(C(=O)NCc3ccc(-n4nccn4)cc3)c2)nnc1-c1ccncn1` [drawing 601], the values for the IC50 (on GRK2 [1] (setting [4]); at GRK2 [2] (setting [5]); in experiment [3]) were 20 nM, 2.1 nM and over 30000 nM, respectively.
`Cn1c(CNc2cccc(C(=O)NCc3ccc(C#N)cc3)c2)nnc1-c1ccncn1` [drawing 603]: the IC50 at GRK2 [1] (setting [4]) is 20 nM; at GRK2 [2] (setting [5]) it was 6.3 nM; in experiment [3] it was over 30000 nM.
The like results for `Cn1nccc1CNC(=O)c1cccc(NCc2nnc(-c3ccncn3)n2C)c1` [drawing 608] were, in that order, 29 nM, 5.7 nM and over 30000 nM.
For `Cc1nc(CNC(=O)c2cccc(NCc3nnc(-c4ccncn4)n3C)c2)cs1` [drawing 610], the IC50 on GRK2 [1] (setting [4]) was 13 nM; on GRK2 [2] (setting [5]) it was 9.8 nM; in experiment [3] it was over 30000 nM.
As to `Cn1c(CNc2cccc(C(=O)NCc3ccc4nccn4c3)c2)nnc1-c1ccncn1` [drawing 611], the IC50 on GRK2 [1] (setting [4]) turned out to be 26 nM; at GRK2 [2] (setting [5]) it was 1.7 nM; in experiment [3], 2930 nM.
`Cn1c(CNc2cccc(C(=O)NCc3cnn(-c4ccccc4)n3)c2)nnc1-c1ccncn1` [drawing 616]: the IC50 at GRK2 [1] (setting [4]) is 18 nM; at GRK2 [2] (setting [5]), 6.5 nM; in experiment [3] it was over 30000 nM.
The like results for `CCS(=O)(=O)c1ccc(CNC(=O)c2cccc(NCc3nnc(-c4ccncn4)n3C)c2)cc1` [drawing 618] were, in that order, 21 nM, 6.2 nM and over 30000 nM.

The record behind these values is patent publication US20230009608A1, “GRK2 INHIBITORS AND USES THEREOF” (Cygnal Therapeutics, Inc., priority 2020, published 2023).
